Paper PMC5338256, “D-form KLKLLLLLKLK-NH2 peptide exerts higher antimicrobial properties than its L-form counterpart via an association with bacterial cell wall components” (Scientific Reports, 2017)
≈ marks a conversion by molar mass, not a printed value. Non-standard residues stand in square brackets, D forms with d. Residues, ends and D or L forms follow the SMILES beside them.

Legend:
[1] = tested on: S. aureus peptidoglycan; experiment: Peptidoglycan-binding assay; set-up: species or system Staphylococcus aureus; conditions: biotin-labeled peptides on immobilized peptidoglycan; 37 °C, 2 h; avidin-labeled peroxidase, absorbance 450 nm; triplicate assays
Description: Peptidoglycan-binding assays were performed as previously described with some modifications. Peptidoglycan from S. aureus (100 μg/ml) was suspended in 0.2% trifluoroacetic acid and sonicated twice for 10 sec at setting 1 using a Branson sonifier model S-150D. The peptidoglycan suspension (50 μl) was used to coat the wells of a flat bottom 96-well microplate (Thermo Fisher Scientific). The plate was incubated at room temperature until the water evaporated. The plate was placed at 60 °C for 1 h to dry out completely, and then blocked with 200 μl of 5 mg/ml bovine serum albumin in binding buffer (10 mM phosphate buffer (pH 6.0) containing 130 mM sodium chloride, 0.05% Tween 20, and 0.01% trifluoroacetic acid) at 37 °C for 2 h. The plate was washed four times with 200 μl of binding buffer. Biotin-labeled peptides in 100 μl of binding buffer containing 0.5% dimethyl sulfoxide were added to the wells and incubated at 37 °C for 2 h. Detection of biotin-labeled peptides was performed using Vectastain ABC reagent (Vector Laboratories) according to manufacturer’s instructions. The wells were washed four times with binding buffer, then 100 μl of avidin-labeled peroxidase was added to each well, and the plate was incubated at 37 °C for 1 h. The wells were washed again as described above. […] Absorbance was measured at 450 nm.

[2] = tested on: S. aureus; experiment: Inhibition of antimicrobial activity by bacterial cell wall components; assay type: cell-based, Staphylococcus aureus; conditions: D-form 1.9 μg/ml, L-form 7.5 μg/ml, 10 min
Description: Bacteria and C. albicans were suspended in growth medium. Peptides suspended in dimethyl sulfoxide were serially diluted in 10 mM phosphate buffer (pH 6.0) containing 130 mM sodium chloride, 0.2% bovine serum albumin as described previously. In order to examine the effects of bovine serum albumin on the assay, 10 mM phosphate buffer (pH 6.0) containing 130 mM sodium chloride, was used for the dilution of peptides. Peptide solution (500 μl) was added to 500 μl of bacteria suspensions and then the mixture was incubated at 37 °C for 10 min. In order to examine the effects of culture medium components on the assay, bacteria suspension was prepared with 10 mM phosphate buffer (pH 6.0) containing 130 mM sodium chloride. Alternatively, 500 μl of peptide solution was added to 500 μl of C. albicans suspensions and the mixture was incubated at room temperature for 10 min. The inhibitory effects of the bacterial components were analyzed by incubating 450 μl of S. aureus suspension with 500 μl of peptide solution plus 50 μl of inhibitor samples at 37 °C for 10 min. Then, the peptide/bacteria suspensions were diluted and plated onto LB agar, LB agar containing 0.5% glucose, or YM agar. After cultivation of the plates, colony forming units (CFU) in the peptide/bacteria suspension were calculated based on the average of triplicate plates.
Peptidoglycan (120 μg) prepared from S. aureus was added to 1 mg/ml of lysozyme in phosphate buffered saline (150 μl)[33]. Peptidoglycan without lysozyme and lysozyme without peptidoglycan were also prepared as controls. Samples were incubated overnight at 37 °C, and then incubated at 100 °C for 15 min to inactivate lysozyme. For heat-inactivation of peptidoglycan, 600 μg of peptidoglycan suspended in water (300 μl) was incubated at 100 °C for 15 min. The samples were sonicated for 10 sec at setting 1 using a Branson sonifier model S-150D. These samples were used as inhibitor samples for antimicrobial activity assays.

[3] = tested on: Staphylococcus aureus; conditions: cited from earlier work
Description: We determined minimum inhibitory concentrations (MICs) of other ant ...

[4] = tested on: S. aureus; assay type: cell-based, Staphylococcus aureus (NBRC100910)
Description: (§1) S. aureus (NBRC100910), E. coli W3110 (NBRC12713), E. hirae (NBRC3181), C. albicans (NBRC1385), and S. Typhimurium 14028s (ATCC14028)[2] were used in this study. S. aureus, E. coli, and S. Typhimurium were grown at 37 °C with aeration in Muller-Hinton II medium (BD Biosciences). E. hirae was grown at 37 °C in LB medium (Nacalai Tesque, Inc.) containing 0.5% glucose (w/v). C. albicans was grown at room temperature with aeration in YM medium (BD Biosciences). All experiments were conducted using bacterial cells and C. albicans in the logarithmic-phase of growth.
(§2) Bacterial suspensions in Muller-Hinton II medium were adjusted to an optical density of 550 nm (OD550) = 0.0011. C. albicans suspensions in YM medium were adjusted to OD650 = 0.033. Peptides were serially diluted in 10 mM phosphate buffer (pH 6.0) containing 130 mM sodium chloride, 0.2% bovine serum albumin, and 2.56% dimethyl sulfoxide. The peptide solution (100 μl) was mixed with 100 μl of bacteria or C. albicans suspensions. Bacterial cultures were incubated for one day at 37 °C. C. albicans cultures were incubated for two days at room temperature. Cell growth was monitored optically and the MIC was determined.

[5] = tested on: S. aureus; experiment: Assay for membrane permeability (ethidium influx); assay type: cell-based, Staphylococcus aureus; conditions: 20 μg/ml peptide, fluorescence for 180 sec, 10 mM phosphate buffer pH 6.0, 130 mM NaCl, 0.2% BSA
Description: To examine membrane permeability, ethidium influx rates were examined as previously described. S. aureus suspension cultures were adjusted to an OD600 of 0.4 in 10 mM phosphate buffer (pH 6.0) containing 130 mM sodium chloride and 0.2% bovine serum albumin. Then, peptide in dimethyl sulfoxide (8 μl) or dimethyl sulfoxide alone (8 μl) was added to 2 ml of S. aureus suspensions. At 30 sec after the addition of peptide, ethidium bromide was added to a final concentration of 5 μg/ml, and fluorescence of the ethidium-nucleic acid complex was monitored using a RF-5300PC spectrofluorometer (Shimadzu). Excitation and emission wavelengths were 545 nm with 5 nm slits and 600 nm with 10 nm slits, respectively.

[6] = tested on: E. coli; assay type: cell-based, Escherichia coli W3110 (NBRC12713); conditions: pH 6
Description: as §1, §2

[7] = tested on: E. hirae; experiment: Assay for antimicrobial activity (10 min exposure, CFU); assay type: cell-based, Enterococcus hirae (NBRC3181); conditions: 10 min at 37 °C, triplicate plates
Description: as §1
(§3) Bacteria and C. albicans were suspended in growth medium. Peptides suspended in dimethyl sulfoxide were serially diluted in 10 mM phosphate buffer (pH 6.0) containing 130 mM sodium chloride, 0.2% bovine serum albumin as described previously. In order to examine the effects of bovine serum albumin on the assay, 10 mM phosphate buffer (pH 6.0) containing 130 mM sodium chloride, was used for the dilution of peptides. […] The inhibitory effects of the bacterial components were analyzed by incubating 450 μl of S. aureus suspension with 500 μl of peptide solution plus 50 μl of inhibitor samples at 37 °C for 10 min. […] After cultivation of the plates, colony forming units (CFU) in the peptide/bacteria suspension were calculated based on the average of triplicate plates.

[8] = tested on: C. albicans; assay type: cell-based, Candida albicans (NBRC1385)
Description: as §1, §2

[9] = cited from earlier work
[10] = tested on: E. coli; experiment: Assay for antimicrobial activity (10 min exposure, CFU); assay type: cell-based, Escherichia coli W3110 (NBRC12713); conditions: 10 min at 37 °C, triplicate plates
Description: as §1, §3

CC(C)C[C@@H](NC(=O)[C@H](N)CCCCN)C(=O)N[C@H](CCCCN)C(=O)N[C@H](CC(C)C)C(=O)N[C@H](CC(C)C)C(=O)N[C@H](CC(C)C)C(=O)N[C@H](CC(C)C)C(=O)N[C@H](CC(C)C)C(=O)N[C@H](CCCCN)C(=O)N[C@H](CC(C)C)C(=O)N[C@H](CCCCN)C(N)=O [D-form KLKLLLLLKLK-NH2] (H-[dK][dL][dK][dL][dL][dL][dL][dL][dK][dL][dK]-NH2; N-terminus assumed)
affinity for S. aureus peptidoglycan, D-form compared with L-form [1]: higher affinity | inhibition of the antimicrobial effect by S. aureus peptidoglycan ([2]; 40 μg/ml S. aureus peptidoglycan): almost inhibited | inhibition of the antimicrobial activity by lipopolysaccharide from E. coli [2]: preferentially inhibited | inhibition of the antimicrobial activity by peptidoglycan from E. coli [2]: weak inhibitory effect | inhibition of the antimicrobial activity by synthetic E. coli lipid A [2]: preferentially inhibited | inhibition of the antimicrobial effect by lipoteichoic acid from S. aureus [2]: inhibited the antimicrobial effect of both D-form and L-form peptides similarly | antimicrobial activity, D-form compared with L-form [3]: higher antimicrobial activity | fold by which the MIC of the D-form is lower than that of the L-form ([4]; S. aureus): 16 fold | MIC ([4]; pH 6): 1 µg/mL (≈ 0.757 µM) | ethidium bromide influx rate [5]: higher | MIC [6]: 8 µg/mL (≈ 6.05 µM) | antimicrobial activity (CFU), D-form compared with L-form [7]: higher antimicrobial activity | MIC [8]: 32 µg/mL (≈ 24.2 µM) | persistence in bacterial culture medium, D-form compared with L-form [9]: persist longer | antimicrobial activity (CFU), D-form compared with L-form [10]: higher antimicrobial activity
